{
  "source": "patent US20230295728A1",
  "about": "“METHODS FOR DIAGNOSING AND TREATING AUTISM” (CENTRE NATIONAL DE LA RECHERCHE SCIENTIFIQUE (CNRS), priority 2020, published 2023)",
  "key": {"B6D2 and Balb c males": {"test_system": "B6D2 and Balb c males", "experimental": "The control group received the same volume (0.1 ml) of 0.9% saline buffer. At 14 days post birth, all offspring (8-12 pups from each litter) were injected (intraperitoneally) with VPA at […] or with saline buffer as a control. […] The F1 to F2 generations were obtained following treatment with the 300 to 500 mg/kg VPA doses. The F1 generation derived from VPA-injected F0 fathers is referred to as VPA-F1, while that from saline-injected fathers is identified as the control. Adult VPA-F1 males were bred with normal females.\nVPA is known to perturb brain formation during early development^22 and to induce characteristic traits of ASD pathology^23,24. […] We treated the animals after birth rather than treating pregnant females as in previous studies^23,24 to avoid the multiple effects on embryonic development generated via the mothers during pregnancy as well as the effects on germ cells. […] In contrast, the injection of pregnant females often leads to an unpredicted arrest of embryonic development and mortality of the mothers either during pregnancy or after the birth of their progenies.\nThe spermatogonial stem cells that will continuously divide and differentiate throughout the life of the male are present, leaving open the possibility that some changes in transcript levels may be transmitted to the next generation."}, "Balb c mice [1]": {"test_system": "Balb c mice", "assay": "Novel object recognition test", "assay_type": "in vivo, mouse", "source_text": "The time spent with familiar versus novel objects highlighted a common characteristic of the test group versus the controls. Specifically, it indicated differences in the interest in and recognition of objects. NOR (novel object recognition) is a well-established test in a variety of animal models with multiple protocols. In general, it involves two trials of cognition evaluation based on the spontaneous exploratory conduct of a mouse to measure recognition memory. In the first trial, we used (first-day acquisition) animals that were exposed to two similar objects (small orange boxes) in a chamber for 5 minutes. During the second trial (second-day retention) mice were again exposed to two dissimilar objects for 5 minutes, including one familiar object from the first trial and one new object (blue box). Object recognition was measured (data not shown), according to the difference in the time spent with the familiar object versus the new object."}, "Balb c mice [2]": {"test_system": "Balb c mice", "assay": "Social interaction test (three chambers)", "assay_type": "in vivo, mouse", "experimental": "To determine whether these interactions varied between the groups of mice, they were filmed for 5 minutes. There are many different ways to follow social interaction. Here, we present the results in a simple way based on conditions in a cage separated into three sections. The mice being tested were placed in the center of the cage and were filmed to calculate the time that they spent close to the empty compartment or the compartment occupied by another mouse. The three chambers were separated by square doors in the two inner walls connecting to the center area. Briefly, the test mouse was introduced in the center to initiate habituation for 5 minutes while blocking access to the side compartments. The first test was conducted by placing an unfamiliar mouse inside an empty wire cage in one of the side chambers to measure the social interaction of the subject mouse without direct social contact. On the other side, there was an empty wire cage. Each test was performed for 10 minutes (data not shown), and the floor surfaces were wiped with 70% ethanol between trials. The accumulated time spent in each compartment and the sociability or social preference indices were measured to quantify the social behavior of the mice."}, "Balb c mice [3]": {"test_system": "Balb c mice", "assay": "Tail suspension test", "assay_type": "in vivo, mouse", "experimental": "Adult mice (2 months old) (Balb c strain) weighing 25-27 g on the test day. The apparatus used for the tail test consisted of two filter covers each and enabled three mice to be tested simultaneously. Each mouse was suspended by the tail from a hook connected to the strain gauge, to which they were attached with adhesive tape with a length of 18 cm. The duration of each trial was 360 seconds. The tail suspension test was recorded using a SONY HDR-CX240E video recorder. […] An immobility posture indicates the abandonment of struggling and, thus, depression. Periods of agitation and immobility are reported (data not shown)."}, "Balb c mice [4]": {"test_system": "Balb c mice", "assay": "Glass marble burying test", "assay_type": "in vivo, mouse", "experimental": "According to the described protocols, newly filled bedding cages were prepared with 20 marbles spaced on the bedding surface. Mice were individually caged. After 30 minutes, each mouse was returned to its home cage, and the buried marbles were counted (data not shown). Marbles that were not buried were not included in the analysis."}, "Balb c mice [5]": {"test_system": "Balb c mice", "assay": "Open field and Morris water tests", "assay_type": "in vivo, mouse", "conditions": "500 mg/kg VPA group (data not shown)"}, "[6]": {"test_system": "six-microRNAs (miR-19a-3p, miR-361-5p, miR-3613-3p, miR-150-5p, miR-126-3p, miR-499a-5p)", "assay": "miRNA analysis of the mouse models (q-PCR of blood, sperm, hippocampus RNA)", "assay_type": "in vivo", "conditions": "VPA-treated mice (500 mg/kg)", "experimental": "Routine qPCR for miR detection and validation^41 was performed with the miScript PCR control set (catalog number 218380; Qiagen, Germany). The miScript™ miRNA PCR Array Human Serum & Plasma 384HC (Cat No: 331223) was used in this study. The Human Serum & Plasma 384HC miScript miRNA PCR Array profiles the expression of 372 miRNAs) that are detectable in serum and plasma using the miScript PCR system. SNORD61, SNORD68, SNORD72, SNORD95, SNORD96A, RNU6-2, miRTC, miRTC, and PPC were used as controls. The data were normalized using the 2^−ΔΔct method.\nTotal RNA was prepared from mouse tissues (blood, hippocampus, sperm) according to published procedures^42. Sperm cells were isolated from the epididymis, and floating sperm were recovered by successive washing (PBS) and centrifugation at 3000 rpm. Briefly, RNAs were extracted from all tissues (hippocampus, blood and sperm cells) via a standard protocol. Qiazol Lysis Buffer (Cat. No: 79306; Qiagen, Texas, USA) was used in accordance with the manufacturer's instructions. The Qiazol-extracted aqueous phase was ethanol precipitated, followed by washing twice with 70% ethanol. To remove the remaining DNA, the PCR samples were treated with DNase according to the manufacturer's instructions."}},
  "note": "Entries after “also recorded” stand apart in the source; their conditions may differ.",
  "data": [
    {"compound": "CCCC(CCC)C(=O)O", "note": "[VPA, valproic acid]", "values": [
      {"measurement": "sudden mortality", "setting": "B6D2 and Balb c males; 500 mg/kg i.p., males", "result": "without sudden mortality"},
      {"measurement": "mortality / lethality at high doses", "setting": "B6D2 and Balb c males; 600-700 mg/kg, one i.p. injection at 14 days post birth, both mouse lines", "result": "dramatic lethality; also recorded: sudden dramatic mortality; also recorded: lethal"},
      {"measurement": "breeding behaviour, fertility, testes", "setting": "B6D2 and Balb c males; mouse, in vivo, 500 mg/kg", "result": "a few males became aggressive toward females during breeding, showed reduced fertility and smaller testes"},
      {"measurement": "time spent with familiar versus novel objects", "setting": "Balb c mice [1]; 400 mg/kg, only for familiar objects", "result": "Some effect was detectable"},
      {"measurement": "time spent with familiar versus novel objects", "setting": "Balb c mice [1]; 500 mg/kg, treated males", "result": "lost interest and spent the same amount of time with the two objects but spent less time overall with both objects"},
      {"measurement": "overall activity in social interaction tests", "setting": "Balb c mice [2]; 500 mg/kg VPA group", "result": "decrease in overall activity"},
      {"measurement": "time spent close to chamber with mouse versus empty chamber", "setting": "Balb c mice [2]; 500 mg/kg, treated males", "result": "showed less interest and spent an even smaller amount of time close to the empty cage"},
      {"measurement": "immobility / struggle-related behaviour", "setting": "Balb c mice [3]; 500 mg/kg, F0 treated males", "result": "a significant change that indicated abandonment and depression was observed"},
      {"measurement": "immobility / struggle-related behaviour", "setting": "Balb c mice [3]; F1 generation of VPA-treated fathers, compared to F0", "result": "the reverse effect was observed"},
      {"measurement": "marbles buried in 30 minutes", "setting": "Balb c mice [4]; 500 mg/kg VPA F1 generation", "result": "the same behavior as in the founders, with significantly less activity"},
      {"measurement": "marbles buried in 30 minutes", "setting": "Balb c mice [4]; 500 mg/kg, treated males", "result": "markedly less interest in burying marbles"},
      {"measurement": "overall activity", "setting": "Balb c mice [5]", "result": "decrease in the overall activity as well by half"},
      {"measurement": "expression of the six-microRNAs", "setting": "[6]", "result": "decreases not only in the blood but also in the sperm and hippocampus"}
    ]}
  ]
}
